Data published in patent US20240251792A1, “WEED CONTROL METHOD” (SYNGENTA CROP PROTECTION AG, priority 2021, published 2024).
Read-outs that look alike come from different tables or passages of the source.

Columns and labels:
Format in all cases: in vivo
weeds and/or crops = assay: Post-emergence biological efficacy (Table 4); settings: 312 h, 1000 g/ha, evaluated after 13 days
Description: (§1) Seeds of weeds and/or crops were sown in standard soil in pots. After cultivation for 14 days under controlled conditions in a glasshouse (at 24/19° C., day/night; 16 hours light), the plants were sprayed with an aqueous spray solution derived from the formulation of the technical active ingredient in a small amount of acetone and a special solvent and emulsifier mixture referred to as F50 (11.12% Emulsogen EL360 TM+44.44% N-methylpyrrolidone+44.44% Dowanol DPM glycol ether), to create a 50 g/l solution which was then diluted using 0.2% Genapol X080 as diluent to give the desired final dose of test compound.
(§2) The test plants were then grown under controlled conditions in the glasshouse (at 24/18° C., day/night; 15 hours light; 50% humidity) and watered twice daily. After 13 days the test was evaluated (100=total damage to plant; 0=no damage to plant).

ZEAMX = assay: Pre-emergence biological efficacy (Table 3); settings: 312 h, 1000 g/ha, after 13 days, read-out: evaluation (100=total damage to plant; 0=no damage to plant)
Description: as §1, with “one day” for “14 days”, “AMA” for “F50”
as §2

STEME = assay: Pre-emergence biological efficacy (Table 3); settings: 312 h, after 13 days, read-out: evaluation (100=total damage to plant; 0=no damage to plant)
Description: as §1, with “one day” for “14 days”, “AMA” for “F50”
as §2

ECHCG = assay: Pre-emergence biological efficacy (Table 3); settings: Echinochloa crus-galli, 312 h, 1000 g/ha, after 13 days, read-out: evaluation (100=total damage to plant; 0=no damage to plant)
Description: as §1, with “one day” for “14 days”, “AMA” for “F50”
as §2

ABUTH = assay: Pre-emergence biological efficacy (Table 3); settings: Abutilon theophrasti, 312 h, after 13 days, read-out: evaluation (100=total damage to plant; 0=no damage to plant)
Description: as §1, with “one day” for “14 days”, “AMA” for “F50”
as §2

IPOHE = assay: Pre-emergence biological efficacy (Table 3); settings: Ipomoea hederacea, 312 h, 1000 g/ha, after 13 days, read-out: evaluation (100=total damage to plant; 0=no damage to plant)
Description: as §1, with “one day” for “14 days”, “AMA” for “F50”
as §2

AMARE = assay: Pre-emergence biological efficacy (Table 3); settings: Amaranthus retroflexus, 312 h, 1000 g/ha, after 13 days, read-out: evaluation (100=total damage to plant; 0=no damage to plant)
Description: as §1, with “one day” for “14 days”, “AMA” for “F50”
as §2

[1] = STEME, read-out: damage to plant STEME (100=total damage; 0=no damage)
[2] = ZEAMX, read-out: damage to plant ZEAMX (100=total damage; 0=no damage)
[3] = Amaranthus retroflexus, AMARE, read-out: damage to plant AMARE (100=total damage; 0=no damage)
[4] = Echinochloa crus-galli, ECHCG, read-out: damage to plant ECHCG (100=total damage; 0=no damage)
[5] = Ipomoea hederacea, IPOHE, read-out: damage to plant IPOHE (100=total damage; 0=no damage)
[6] = Abutilon theophrasti, ABUTH, read-out: damage to plant ABUTH (100=total damage; 0=no damage)

| SMILES | pest or weed control at 1000 g/ha (weeds and/or crops; [1]) [%] | pest or weed control at 1000 g/ha (weeds and/or crops; [2]) [%] | pest or weed control at 1000 g/ha (weeds and/or crops; [3]) [%] | pest or weed control at 1000 g/ha (weeds and/or crops; [4]) [%] | pest or weed control at 1000 g/ha (weeds and/or crops; [5]) [%] | plant injury at 1000 g/ha (ZEAMX) [%] | pest or weed control at 1000 g/ha (STEME) [%] | pest or weed control at 1000 g/ha (ECHCG) [%] | pest or weed control at 1000 g/ha (ABUTH) [%] | pest or weed control at 1000 g/ha (IPOHE) [%] | pest or weed control at 1000 g/ha (AMARE) [%] | pest or weed control at 1000 g/ha (weeds and/or crops; [6]) [%] |
| --- | --- | --- | --- | --- | --- | --- | --- | --- | --- | --- | --- | --- |
| Cc1noc2cccc(C(F)(F)C(=O)O)c12 [Compound 1-391, 2,2-Difluoro-2-(3-methyl-1,2-benzoxazol-4-yl)acetic acid] | 50 | 10 | 70 | 30 | 80 | 10 | 20 | 40 | 40 | 60 | 70 |  |
| CSc1c(Cl)cccc1C(F)(F)C(=O)O [Compound 1-356, 2-(3-Chloro-2-(methylthio)phenyl)-2,2-difluoroacetic acid] | 70 | 10 | 40 | 0 | 70 | 10 | 30 | 0 | 30 | 50 | 50 | 60 |
| O=C(O)C(F)(F)c1c(Cl)ccc2cccnc12 [Compound 1-407, 2-(7-Chloroquinolin-8-yl)-2,2-difluoroacetic acid] | 30 | 0 | 70 | 0 | 80 | 40 | 10 | 50 | 70 | 60 | 60 |  |
| O=C(O)C(F)(F)c1c(Cl)ccc2c1OC(F)(F)O2 [Compound 1-389, 2-(5-Chloro-2,2-difluorobenzo[d][1,3]dioxol-4-yl)-2,2-difluoroaceticacid] | 50 | 0 | 80 | 10 | 70 | 10 | 60 | 10 | 50 | 60 | 60 |  |
| O=C(O)C(F)(F)c1c(F)ccc2cccnc12 [Compound 1-406, 2,2-Difluoro-2-(7-fluoro-8-quinolyl)acetic acid] | 70 | 40 | 80 | 20 | 80 | 10 | 50 | 0 | 60 | 60 | 80 | 70 |
| N#Cc1c(Cl)cccc1C(F)(F)C(=O)O [Compound 1-262, 2-(3-Chloro-2-cyano-phenyl)-2,2-difluoro-acetic acid] | 100 | 20 | 90 | 0 | 70 | 40 | 100 | 0 | 90 | 90 | 90 | 80 |
| COc1c(Cl)cccc1C(F)(F)C(=O)O [Compound 1-317, 2-(3-chloro-2-methoxy-phenyl)-2,2-difluoro-acetic acid] | 100 | 60 | 100 | 60 | 90 | 70 | 100 | 90 | 100 | 90 | 90 |  |
| COc1ccc(Cl)c(C(F)(F)C(=O)O)c1 [Compound 1-62, 2-(2-Chloro-5-methoxyphenyl)-2,2-difluoroacetic acid] | 60 | 20 | 60 |  | 70 | 20 | 80 | 30 | 50 | 20 | 80 | 20 |
| Nc1ccc(Cl)c(C(F)(F)C(=O)O)c1Cl [Compound 1-236, 2-(3-Amino-2,6-dichloro-phenyl)-2,2-difluoro-acetic acid] | 10 | 10 | 30 | 0 | 30 |  | 0 | 0 | 0 | 0 | 20 | 0 |
| Nc1cc(Cl)c(Cl)c(C(F)(F)C(=O)O)c1 [Compound 1-77, 3-[carboxy(difluoro)methyl]-4,5-dichloroanilinium] | 30 | 10 | 60 | 0 | 10 | 0 | 10 |  | 10 | 30 | 10 |  |
| CSc1c(C(F)(F)C(=O)O)ccc(Br)c1Cl [Compound 1-359, 2-(4-Bromo-3-chloro-2-methylsulfanyl-phenyl)-2,2-difluoro-acetic acid] | 0 | 20 | 10 |  | 10 | 10 | 0 |  | 0 | 0 | 10 | 10 |
| O=C(O)C(F)(F)c1cccc2cccnc12 [Compound 1-403, 2,2-Difluoro-2-(quinoline-8-yl)acetic acid] | 80 | 20 | 90 |  | 70 | 30 | 70 |  | 80 | 90 | 80 | 80 |
| CCOC(=O)C(F)(F)c1c(F)ccc(F)c1O [Compound 3-297, Ethyl 2-(3,6-difluoro-2-hydroxyphenyl)-2,2-difluoroacetate] | 0 | 20 | 10 |  | 10 | 0 | 0 |  | 0 | 0 | 0 | 10 |
